Measured values from patent US20210205292A1, “INHIBITORS OF CREB-CBP INTERACTION FOR TREATMENT OF LEUKEMIA” (The Board of Trustees of the Leland Stanford Junior …, priority 2016, published 2021).

How the values were obtained:
[1] = test system: Cyclin A1, Cyclin D1, Fra-1, RFC-3; assay: Expression of CREB-regulated cell cycle genes; type: cell-based
Description: Cyclin A1 and D1 expression was decreased following 12 hours of treatment, while Fra-1 and RFC-3 expression decreased following 48 hours of treatment.
Mol Cell Biol. 2004; 24(11):4696-709) (FIG. 6, panel C). […] Levels of RFC-3 also decrease following Compound A treatment (FIG. 6, panel C).

CREB genomic binding = assay: CREB ChIP-Seq in KG-1 cells; type: cell-based; settings: 5 μM, 6 hours
Description: For Chip-Seq experiments, KG-1 cells were treated with 5 μM Compound A or DMSO for 6 hours. Cells were cross-linked with 1% formaldehyde at room temperature for 10 min and then incubated with […] for 5 min. After cross-linking, chromatin was digested by Micrococcal nuclease and then sonicated using SimpleChIP® Plus Enzymatic Chromatin IP Kit (Cell Signaling, Danvers, Mass.) following the manufacturer's protocol. Chromatin immunoprecipitations were carried out with anti-CREB antibody (Millipore, Billerica, Mass.) or a control IgG (Santa Cruz Biotechnology). The captured immunocomplexes containing bound transcriptional DNA fragments were eluted, with recovered DNA fragments used for PCR amplification. For RNA-Seq experiments, KG-1 cells were treated with Compound A (5 μM) or 0.1% DMSO for 12 hours. RNA was prepared using the Aurum Total RNA Mini Kit (Bio-Rad). Sample libraries were run using the Illumina sequencing platform. Two hundred million reads were collected on two biological replicates of the experiment. […]
To determine the functional specificity and downstream effects of Compound A in AML, the CREB transcriptome was first defined in KG-1 cells using CREB chromatin immunoprecipitation followed by high-throughput sequencing (CREB ChIP-Se). […] In this way, the ‘on-target’ effects of Compound A could be assessed.

H3K27 acetylation = assay: Western blot of total and H3K27-specific histone acetylation; type: cell-based; settings: 6 or 24 hours
Description: Cells were lysed in RIPA buffer (Sigma), and the protein concentrations were determined by BCA assay (Thermo Scientific Pierce). Lysates were solubilized in 6×SDS PAGE buffer and […] of protein was loaded into 6-15% SDS PAGE gels, pheresed, and then transferred onto […] PVDF membrane (Millipore). Primary antibodies were applied at a dilution of 1:1000. Anti-Bcl-2, -Bax, -Mcl-1, -Bcl-XL, -Cyclin A and -Cyclin D1 antibodies were purchased from Cell Signaling Technologies. Anti-total acetylated histone and -ac-H3K27 were purchased from Santa Cruz Biotechnologies. Anti-actin and -CREB antibodies were purchased from upstate. Secondary antibodies were used at a 1:2500 dilution and purchased from Thermo Scientific/Pierce. WesternBright ECL was used for image acquisition on Image Lab software (Bio-Rad).

[2] = Plasma pharmacokinetics in NSG mice, quantitative mass spectrometry; type: in vivo; settings: mouse, ip, 20 mg/kg/day, 20 mg/kg/day IP
Description: FIG. 10, panels A-D, illustrates the non-toxicity and pharmacodynamics of compound Compound A. Panel A) Human AML patient sample cells (#186) were injected (2×10^6 cells) into 8 NSG mice, and mice were then treated with intravenous 0.1% DMSO or 2.3 mg/kg Compound A IV once daily. […] Compound A plasma concentration was measured by quantitative mass spectrometry. […] Panel C). […] Numbers shown are averages of values from 3 mice SE.
To assess the potential in vivo toxicities of Compound A, four groups of five mice not injected with AML cells were treated with 2.3 mg/kg Compound A intravenously daily, or 20, 40 or 60 mg/kg intraperitoneally (IP) daily for 28 days.

KG-1 cells = assay: Cell cycle analysis of synchronized KG-1 cells by flow cytometry; type: cell-based
Description: KG-1 cells were synchronized at prometaphase using a modified thymidine plus nocodazole block (Whitfield et al. identification of genes periodically expressed in the human cell cycle and their expression in tumors. Mol Biol Cell. 2002; 13(6):1977-2000). Briefly, KG-1 cells were treated with 2 mM thymidine for 30 h, washed with PBS and released from G1/S block in fresh media for 4 h. The cells were incubated with 300 nM nocodazole (Sigma) for 13 h. Compound A or DMSO was added 3 hours before release. The synchronized cells were washed with PBS and released from the mitotic block in fresh media containing Compound A or DMSO. To analyze DNA content by flow cytometry, cells were harvested, fixed in 70% ice-cold ethanol for at least 1 hour at −20° C., and then incubated in propidium iodide (PI) staining buffer (PBS containing RNase A (50 μg/ml), 0.1% sodium citrate, and PI ([…])) for 30 minutes at RT. Cells were analyzed on a FACS Calibur flow cytoneter (BD Biosciences). Cell-cycle distribution was determined using FlowJo software (TreeStar).
CREB regulates the cell cycle by virtue of transcriptionally regulating the expression of key cell cycle genes. Thus, the effect of Compound A on this aspect of cell function was also examined. […]

normal bone marrow cells = assay: Normal bone marrow samples, viability; type: cell-based, human; settings: 72 hours

## N#Cc1ccc(NC(=O)c2cc3ccccc3cc2O)cc1 [Compound A, N-(4-cyanophenyl)-3-hydroxy-2-naphthamide]
[1]; 12 hours of treatment
  Cyclin A1 and D1 expression: decreased
[1]; 48 hours of treatment
  Fra-1 and RFC-3 expression: decreased
CREB genomic binding
  CREB genomic binding: did not change
H3K27 acetylation
  H3K27 acetylation (Western blot): specific decrease in H3K27 acetylation
[2]
  half-life: 4.3 h
KG-1 cells; 4 hours following release
  % cells in G1-phase: 66.20±1.83%
KG-1 cells; 8 hours following release
  % cells in G1-phase: 55.41±0.59%
Normal bone marrow cells
  viability of normal bone marrow cells: did not significantly change
